From patent US20060241162A1, “Optically active (R)-hydantoin derivative” (priority 2005, published 2006)
Entries after “also recorded” stand apart in the source; their conditions may differ.

Tested on: model rats for renal insufficiency
Experiment: Suppressive action to the progression of renal failure in adenine-induced renal insufficiency model rats
Format: in vivo, Wistar-strain male rats
Text: (1) Suppressive Action of the Optical Isomer to the Progression of Renal Failure
Adenine was orally administered to Wistar-strain male rats of eight weeks age to prepare a renal insufficiency model. […] Further, a value of creatinine clearance (mL/kg/hr) decreased from 315.3±13.8 to 25.7±4.4 whereupon renal functions lowered to about one-tenth.
From the 7th to the 17th days from administration of adenine, each of (S)-(−)- 5-hydroxy-1-methylhydantoin, (R)-(+)-5-hydroxy-1-methylhydantoin and the racemate at the dose of 100 mg/kg or 200 mg/kg was orally administered to the rat in which renal insufficiency was induced by adenine. The creatinine levels in blood before and after the administration of the test drug were compared whereupon a suppressive action of the test drug to an increase of creatinine (ΔCr) accompanied by the progress of renal insufficiency was checked and the results are shown in FIG. 1 and FIG. 2. Five rats were used as a group for the test. The average value ± standard error was calculated and the significant difference between the test drug group and the diseased control group was statistically analyzed by means of Dunnett's test or Student-t test (*; p<0.05).

SMILES: CN1C(=O)NC(=O)[C@H]1O [(R)-(+)-5-hydroxy-1-methylhydantoin]
- suppressive action to the progression of renal failure (as compared with the S-form and the racemate, oral, listed as R-form): excellent suppressive action; also recorded: particularly an excellent suppressive effect
- suppressive action to an increase of creatinine in blood (ΔCr) (oral 100 mg/kg or 200 mg/kg, 7th to 17th day of adenine, vs diseased control, p<0.05, FIG. 1 and FIG. 3): significantly suppressed
